This is an account of results in patent EP4635500A1, “THERAPEUTIC AGENT FOR BACTERIAL INFECTION” (Sumitomo Pharma Co., Ltd., priority 2022, dated 2024).

≈ marks a conversion by molar mass, not a printed value. Like-named read-outs stand apart in the source and are kept apart here.

In experiment [1] the test system is CRE and CPE strains. The experiment in a line: MIC, broth microdilution, standard strains and Japanese clinical isolates (Example 5, Table 4 continued; organism of each KUB strain not given). Type of experiment: cell-based. A general note: In broth dilution the organism is exposed to a series of concentrations in liquid medium.
In experiment [2] the test system is Providencia rettgeri. The experiment in a line: MIC, broth microdilution, standard strains and Japanese clinical isolates (Example 5, Table 4). It counts as cell-based. To be noted: ATCCBAA2525; KUB4010 Providencia rettgeri ATCC BAA-2525, OXA-181.

As to `CC(C)(O/N=C(\C(=O)N[C@@H]1C(=O)N2C(C(=O)[O-])=C(C[n+]3ccccc3)CS[C@H]12)c1csc(N)n1)C(=O)O` [CAZ, ceftazidime], the MIC in experiment [1] (strain KUB3148, carbapenemase gene KPC-3, read-out: MIC) is > 32 µg/mL; in experiment [1] (strain KUB3149, carbapenemase gene NDM-1, read-out: MIC), > 32 µg/mL; in experiment [1] (strain KUB3150, carbapenemase gene OXA-48, read-out: MIC) it was 1 µg/mL (≈ 1.83 µM); in experiment [1] (strain KUB3151, carbapenemase gene IMP-1, read-out: MIC), > 32 µg/mL; in experiment [1] (strain KUB3152, carbapenemase gene KPC-2, read-out: MIC), 32 µg/mL (≈ 58.5 µM); in experiment [1] (strain KUB3153, carbapenemase gene KPC-3, read-out: MIC), > 32 µg/mL. Moreover, the minimal inhibitory concentration (MIC) was 32 µg/mL (≈ 58.5 µM) in experiment [1] (strain KUB3154, carbapenemase gene KPC-2, read-out: MIC); 0.5 µg/mL (≈ 0.915 µM) in experiment [1] (strain KUB3158, carbapenemase gene OXA-48); 8 µg/mL (≈ 14.6 µM) in experiment [1] (strain KUB3169, carbapenemase gene Unidentified); 8 µg/mL (≈ 14.6 µM) in experiment [1] (strain KUB3170, carbapenemase gene Unidentified); 8 µg/mL (≈ 14.6 µM) in experiment [1] (strain KUB3171, carbapenemase gene -); > 32 µg/mL in experiment [2].

What is called MIC is the smallest concentration in the dilution series that meets the test's criterion for growth inhibition.
